Assay [1] concerns the target WRN (BV08), human Werner helicase (Uniprot Q14191, amino acids 517-1235 with L1074F point mutation) (Homo sapiens (Human), UniProt Q14191, L1074F). As to the kind of experiment: WRN (BV08) ADP-Glo assay. The format is biochemical. The following applies: class symbols A-E, read-out: ADP-Glo_hWRN_IC50. The method, then:
Bovine skin gelatin (BSG), dimethyl sulfoxide (DMSO), Pluronic F-127 and tris(2-carboxyethyl)phosphine hydrochloride solution (TCEP) were purchased from Sigma-Aldrich (St. Louis, MO) at the highest level of purity possible. […] DNA strands were annealed by heating to 95° C. for 5 minutes followed by slow cooling to room temperature. Compounds in 100% DMSO (0.1 μl) were spotted into a 384-well white polystyrene Optiplate-384 (Perkin Elmer; Waltham, MA) assay plate using a LabCyte Echo 550 (Agilent; Santa Clara, CA). DMSO (0.1 μl) was added to columns 12, rows A-H and column 24, rows I-P for the maximum signal control. […] Compounds/DMSO were preincubated for 15 minutes at 25° C. with 5 μl 2×WRN (BV08), prepared as described below, in assay buffer containing 20 mM Bicine (pH=7.5), 1 mM MgCl2, 10 mM KCl, 0.1% Pluronic F-127, 0.005% BSG, 1 mM TCEP. The reaction was initiated by the addition of 5 μl 2× substrate mixture in assay buffer and incubated for 60 minutes at 25° C. The final concentrations of the assay components were 0.15 nM WRN, 5 μM ATP, and 0.1 nM DNA duplex. The final DMSO concentration was 1% and the reference compound concentration (NSC-617145) used for the minimal signal control was 20 μM. The reaction was stopped by the addition of the ADP-Glo Kit components (Promega; Madison, WI) as directed and the relative luminescence units (RLU) were read on an Envision 2104 (Perkin Elmer; Waltham, MA). % inhibition calculation:
[formula] • Where RLU=relative luminescence units, sample=signal in sample well, and MIN and MAX are the respective minimum and maximum signal controls.
[formula] • Where top and bottom are normally allowed to float but may be fixed at 100 or 0 respectively in a 3-parameter fit. Y is the % inhibition and X is the compound concentration.
Molecular Biology and virus production. […] The baculovirus from the expression plasmid WRN—BV08 was generated from transfection and amplification following the manufacturer's instructions.
Sf9 cells grown in SF900II media were infected with 1:200 WRN—BV08 P2 virus and incubated for protein expression for 72 h at 27° C. The WRN protein was purified using the following protocol. The cell pellets were thawed and resuspended in buffer A (50 mM Tris, pH 7.5, 500 mM NaCl, 1 mM TCEP, 10% Glycerol) supplemented with 0.5% CHAPS, 1 mM PMSF, 1 μg/ml Leupeptin, 1 μg/ml Pepstatin, and the Pierce Universal Nuclease and cocktail tablet. Cleared lysates were loaded onto a Ni Sepharose™ excel column and washed with buffer A and bound protein was eluted with buffer A supplemented with 300 mM imidazole. The eluted protein was dialyzed against buffer A and digested by His-tagged TEV (1:5 ratio) overnight at 4° C. ZnCl2 was added into the sample at final 15 μM before loading onto a second Ni Sepharose™ excel column. Untagged WRN protein was eluted from the column with buffer A supplemented with 20 mM imidazole, dialyzed overnight into buffer B (50 mM Tris, pH 7.5, 1 mM TCEP, 10% Glycerol) supplemented with 150 mM NaCl and loaded onto a Heparin column. Proteins were eluted with a step gradient of buffer B supplemented with 150 mM, 200 mM, 300 mM and 500 mM NaCl. WRN containing fractions were pooled and concentrated prior to loading on to size exclusion chromatography using a HiLoad 16/600 Superdex™ 200 pg column (GE Healthcare) in buffer C (20 mM HTEPES, pH 7.5, 250 mM NaCl, 0.25 mM TCEP, […]).
On the technique in general: In ADP-Glo the light output rises with the ADP produced.

The test system of assay [2] is p21 induction in HCT116 cells. As to the kind of experiment: p21 induction in HCT116 cells. The following applies: Homo sapiens, HCT-116, 24 h, HCT116 cells, 24 h compound incubation; read-out: P21_EC50. The format is cell-based. As for the experimental part: The colon carcinoma cell line HCT116 was obtained from ATCC and cultured in growth medium consisting of Mccoy's 5A Medium (Gibco 16600108) supplemented with 10% FBS (Transgene FS201-02) and 100 units/mL penicillin-streptomycin (Gibco 15140122) and maintained at 37° C. under 5% CO2. On the day of seeding, 2,000 cells in 30 μL of culture media were plated per well to Poly-D-Lysine 384 Well Black Clear Plates (Biocoat 356663) and incubated overnight at 37° C. under 5% CO2. The following day, compounds were serially diluted in DMSO for a total of 11 test concentrations. […] Next, 150 nL of diluted compound was added in duplicate to the assay plate, using an Echo 655 (Labcyte). The plate was centrifuged at 500 RPM for 1 min and then incubated at 37° C. under 5% CO2 for 24 h. After 24 h, medium was removed, and cells were fixed by adding 40 μL of 4% paraformaldehyde solution to each well and incubated for 20 min at room temperature. The plate was then washed 4 times with 100 μL per well of wash buffer (PBS with 0.1% Tween-20) using a microplate washer. Next, 30 μL of ice-cold methanol was added to each well and the plate was incubated at −20° C. for 10 min. The plate was washed 4 times with 100 μL per well of wash buffer by a microplate washer, then 30 μL per well of blocking buffer (Intercept PBS blocking buffer (LI-COR 927-70001) with 0.05% Tween-20) was added and the plate was incubated at room temperature with shaking for 2 h. Next, to each test well, 20 μL of primary antibody solution (p21 Waf1/CIP (12D1) RabbitmAb (Cell Signaling Technologies 2947) diluted 1:1000 and GAPDH (D4C6R) Mouse mAb (Cell Signaling Technologies 97166) diluted 1:2000 in blocking buffer) was added and the plate was placed at 4° C., overnight. The following day, the plate was washed 5 times with 100 μL per well of wash buffer using a microplate washer for 5 min. 20 μL per well of secondary antibody (IRDye 680CW Goat anti-Mouse IgG (H+L) (LI-COR 926-68070) diluted 1: 2000 in Blocking Buffer and IRDye 800CW Goat anti-Rabbit IgG (H+L) (LI-COR 926-32211) diluted 1: 2000 in Blocking Buffer) was then added and the plate was stored for 2 h in the dark at room temperature with shaking. The plate was then washed 4 times with 100 μL per well of wash buffer again using a microplate washer. Finally, the p21 signal and the GAPDH signal were quantified using a LI-COR Odyssey CLx Imager machine reading at 800 nm and 700 nm, respectively. Each plate contained DMSO control (low control) and an internal reference WRN inhibitor (high control) respectively. […] EC50 values for each compound were generated after non-linear regression curve fitting using commercially available software.

Sequence of WRN (BV08), human Werner helicase (Uniprot Q14191, amino acids 517-1235 with L1074F point mutation) (Q14191 other isoform, or with tags, fused parts or gaps L1074F (already in the parent)): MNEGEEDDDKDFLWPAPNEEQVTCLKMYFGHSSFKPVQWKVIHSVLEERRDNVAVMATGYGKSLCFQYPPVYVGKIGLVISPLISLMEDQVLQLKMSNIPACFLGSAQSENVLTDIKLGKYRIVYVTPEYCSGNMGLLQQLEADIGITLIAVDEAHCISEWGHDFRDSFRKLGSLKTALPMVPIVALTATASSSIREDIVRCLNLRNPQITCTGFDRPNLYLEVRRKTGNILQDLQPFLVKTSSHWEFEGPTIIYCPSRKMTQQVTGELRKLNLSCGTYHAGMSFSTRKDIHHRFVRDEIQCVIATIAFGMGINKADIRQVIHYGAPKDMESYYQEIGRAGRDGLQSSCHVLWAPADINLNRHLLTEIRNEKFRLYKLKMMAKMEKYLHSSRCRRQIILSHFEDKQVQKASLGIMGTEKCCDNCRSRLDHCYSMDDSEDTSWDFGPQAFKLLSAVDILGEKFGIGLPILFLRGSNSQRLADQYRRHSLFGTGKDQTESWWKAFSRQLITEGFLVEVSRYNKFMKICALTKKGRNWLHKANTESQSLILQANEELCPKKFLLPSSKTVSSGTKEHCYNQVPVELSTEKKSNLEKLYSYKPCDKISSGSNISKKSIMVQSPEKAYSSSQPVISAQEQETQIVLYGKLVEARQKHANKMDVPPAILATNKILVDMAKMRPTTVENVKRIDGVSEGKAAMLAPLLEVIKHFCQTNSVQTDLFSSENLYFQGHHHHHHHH

For `CCc1c(N2CCN(C(=O)c3ncnc(C)c3O)[C@H]3CCC32)c(=O)c2nc(OC)c(C)nc2n1CC(=O)Nc1ccc(C(F)(F)F)cc1Cl` (mixture of isomers) [I-16, rac-N-(2-chloro-4-(trifluoromethyl)phenyl)-2-(6-ethyl-7-(5-(5-hydroxy-6-methylpyrimidine-4-carbonyl)-2,5-diazabicyclo[4.2.0]octan-2-yl)-2-methoxy-3-methyl-8-oxopyrido[2,3-b]pyrazin-5(8H)-yl)acetamide], the IC50 in assay [1] was in the range of 5 to 50 nM. Moreover, the EC50 in assay [2] is 500 to 2000 nM.

Take `CCc1c(N2CCN(C(=O)c3ncnc(C)c3O)[C@H]3CC[C@@H]32)c(=O)c2nc(NC)cnc2n1CC(=O)Nc1ccc(C(F)(F)F)cc1Cl` (racemic) [I-97, rac-N-(2-chloro-4-(trifluoromethyl)phenyl)-2-(6-ethyl-7-(-5-(5-hydroxy-6-methylpyrimidine-4-carbonyl)-2,5-diazabicyclo[4.2.0]octan-2-yl)-2-(methylamino)-8-oxopyrido[2,3-b]pyrazin-5(8H)-yl)acetamide]: the IC50 in assay [1] lay in the range of 5 to 50 nM. For the same compound, the EC50 in assay [2] is below 500 nM.

With `CCc1c(N2CCN(C(=O)c3ncnc(C)c3O)[C@@H]3CC[C@H]32)c(=O)c2nc(C=C3CCC3)cnc2n1CC(=O)Nc1ccc(C(F)(F)F)cc1Cl` (racemic) [I-135], the IC50 in assay [1] fell in the range of 5 to 50 nM. Also, the EC50 in assay [2] is below 500 nM.

Consider `CCO/C=C/c1cnc2c(n1)c(=O)c(N1CCN(C(=O)c3ncnc(C)c3O)[C@H]3CC[C@@H]31)c(CC)n2CC(=O)Nc1ccc(C(F)(F)F)cc1Cl` (racemic) [I-136, rac-N-[2-chloro-4-(trifluoromethyl)phenyl]-2-{2-[(1E)-2-ethoxyethenyl]-6-ethyl-7-[-5-(5-hydroxy-6-methylpyrimidine-4-carbonyl)-2,5-diazabicyclo[4.2.0]octan-2-yl]-8-oxo-5H,8H-pyrido[2,3-b]pyrazin-5-yl}acetamide], for which the IC50 in assay [1] was in the range of 5 to 50 nM. For the same compound, the EC50 in assay [2] was below 500 nM.

For the compound `CCc1c(N2CCN(C(=O)c3c(O)ccnc3OC)[C@@H]3CC[C@H]32)c(=O)c2nc(N(C)C)cnc2n1CC(=O)Nc1ccc(C(F)(F)F)cc1Cl` (racemic) [I-139, rac-N-[2-chloro-4-(trifluoromethyl)phenyl]-2-[2-(dimethylamino)-6-ethyl-7-[-5-(4-hydroxy-2-methoxypyridine-3-carbonyl)-2,5-diazabicyclo[4.2.0]octan-2-yl]-8-oxo-5H,8H-pyrido[2,3-b]pyrazin-5-yl]acetamide], in assay [1], the IC50 lay within 5 to 50 nM. Besides, the EC50 in assay [2] fell in the range of 500 to 2000 nM.

On to `CCc1c(N2CCN(C(=O)c3ncnc(C)c3O)CC2)c(=O)c2nc(N(C)[C@H]3CC[C@@H]3OC)cnc2n1CC(=O)Nc1ccc(C(F)(F)F)cc1Cl` (racemic) [I-143, rac-N-(2-chloro-4-(trifluoromethyl)phenyl)-2-(6-ethyl-7-(4-(5-hydroxy-6-methylpyrimidine-4-carbonyl)piperazin-1-yl)-2-((2-methoxycyclobutyl)(methyl)amino)-8-oxopyrido[2,3-b]pyrazin-5(8H)-yl)acetamide], for which, in assay [1], the IC50 lay within 5 to 50 nM. In assay [2], the EC50 fell in the range of 2000 to 5000 nM.

Take `CCc1c(N2CCN(C(=O)c3ncnc(C)c3O)CC2)c(=O)c2nc(N(C)[C@H]3CC[C@H]3OC)cnc2n1CC(=O)Nc1ccc(C(F)(F)F)cc1Cl` (racemic) [I-146, rac-N-(2-chloro-4-(trifluoromethyl)phenyl)-2-(6-ethyl-7-(4-(5-hydroxy-6-methylpyrimidine-4-carbonyl)piperazin-1-yl)-2-((2-methoxycyclobutyl)(methyl)amino)-8-oxopyrido[2,3-b]pyrazin-5(8H)-yl)acetamide]: the IC50 in assay [1] fell in the range of 5 to 50 nM. Also, the EC50 in assay [2] is 2000 to 5000 nM.

Regarding `CCc1c(N2CCN(C(=O)c3ncnc(C)c3O)CC2)c(=O)c2nc(N3CC[C@@H]4CC[C@@H]43)cnc2n1CC(=O)Nc1ccc(C(F)(F)F)cc1Cl` (racemic) [I-230, rac-2-(2-(2-azabicyclo[3.2.0]heptan-2-yl)-6-ethyl-7-(4-(5-hydroxy-6-methylpyrimidine-4-carbonyl)piperazin-1-yl)-8-oxopyrido[2,3-b]pyrazin-5(8H)-yl)-N-(2-chloro-4-(trifluoromethyl)phenyl)acetamide], the IC50 in assay [1] lay within 5 to 50 nM. In addition, in assay [2], the EC50 is below 500 nM.

On to `CCc1c(N2CCN(C(=O)c3ncnc(C)c3O)[C@H]3CC(F)(F)C[C@@H]32)c(=O)c2nc(N(C)C)cnc2n1CC(=O)Nc1ccc(C(F)(F)F)cc1Cl` (racemic) [I-291, rac-N-(2-chloro-4-(trifluoromethyl)phenyl)-2-(7-(6,6-difluoro-4-(5-hydroxy-6-methylpyrimidine-4-carbonyl)octahydro-1H-cyclopenta[b]pyrazin-1-yl)-2-(dimethylamino)-6-ethyl-8-oxopyrido[2,3-b]pyrazin-5(8H)-yl)acetamide], for which, in assay [1], the IC50 was 5 to 50 nM. Moreover, the EC50 in assay [2] lay in the range of 2000 to 5000 nM.

As for `CCc1c(N2CCN(C(=O)c3ncnc(C)c3O)[C@H]3CC[C@@H]32)c(=O)c2nc(N3CC[C@H]4C[C@H]43)cnc2n1CC(=O)Nc1ccc(C(F)(F)F)cc1F` (relative stereo) [I-122, 2-(2-((1R*,5S*)-2-azabicyclo[3.1.0]hexan-2-yl)-6-ethyl-7-((1S,6S)-5-(5-hydroxy-6-methylpyrimidine-4-carbonyl)-2,5-diazabicyclo[4.2.0]octan-2-yl)-8-oxopyrido[2,3-b]pyrazin-5(8H)-yl)-N-(2-fluoro-4-(trifluoromethyl)phenyl)acetamide], in assay [1], the IC50 is at most 5 nM. In addition, the EC50 in assay [2] was below 500 nM.

For the origin of these results see patent US20250034136A1 (Nimbus Wadjet, Inc., priority 2023, published 2025).
